The IC50 is the midpoint of a concentration-inhibition curve. What is called inhibition is the drop in the measured response relative to a control, in per cent.

The values that follow come from patent US5624902A, “Peptide inhibitors of calmodulin” (Torrey Pines Institute for Molecular Studies, priority 1995, dated 1997).

Square brackets hold non-standard residues; d marks the D form. Peptide text beside a SMILES is read from it. Some results are limits rather than exact numbers.

The test has as its target calmodulin (Homo sapiens, UniProt P0DP23). Put plainly: calcium-dependent phosphodiesterase assay (inhibition of calmodulin activity). Format: biochemical. The following applies: for IC50: concentration inhibiting 50% of calmodulin activity, assayed at 75 μM, 50 μM and 12.5 μM; for inhibition at 50 µM: inhibition of calmodulin activation of phosphodiesterase at 50 μM peptide, PDE without calmodulin = 100%, Calmo = 0%.

Experimental: In this assay, calmodulin can be assayed by its ability to stimulate phosphodiesterase activity as determined by a two-step assay procedure illustrated by reactions (1) and (2).
During the first step of the assay cyclic adenosine 3'5'-monophosphate (cAMP) is incubated with calcium-activated phosphodiesterase (Cal-PDE), which hydrolyses the 3' bond producing adenosine 5'-monophosphate (5'-AMP). During the second step 5'-AMP is quantitatively converted into adenosine and inorganic phosphate (Pi) through the action of a 5'-nucleotidase. […] The amount of Pi formed is directly related to the phosphodiesterase activity which depends on the level of activation by calmodulin.
To sample assay tubes were added the following components: assay buffer, 25 μl; CaCl2, 5 μl; 5'-nucleotidase, 7.5 μl (stock solution is 10 units/ml); calmodulin 5 units; calmodulin inhibitor peptides to obtain the desired final concentration of 50 μM. The volume was then made up to 200 μl with water. Control blanks were prepared replacing the peptides with water. The added components were thoroughly mixed and the tubes incubated at 30° C. for 10 min. […] The samples were centrifuged to remove the protein precipitate and the 50 μl of the supernatant was withdrawn for phosphate measurement. […] The absorbance of the solution were read at 660 nm using water as a blank, identified as control "Calmo," as discussed in more detail below.
These three peptides commonly used in every assay as control of reproducibility of the assay.
In addition to the calcium-dependent phosphodiesterase assay data, IC50 values were determined for many of the peptides. The assay carried out for the determination in the IC50 values differed from the above screening assay by the concentration of the peptides being tested.
(2) W13: N-(4-aminobutyl)-5-chloro-2-naphtalenesulfonamide; (3) TFP: trifluoperazine; (4) Calmidasolium: (1-[bis-(4-chlorophenyl)methyl]-3[-2-(2,4-dichlorophenyl)-2[(2,4-dichlorophenyl)methoxy]-ethyl]-1H-imidazolium chloride. The IC50 values were calculated using sigmoidal curve software (Graphpad, ISI, San Diego) using the % inhibition at different mixture concentrations (see attached protocol for determination of % inhibition).

Take `CC[C@@H](C)[C@@H](NC(=O)[C@@H](Cc1c[nH]c2ccccc12)NC(=O)[C@@H](CC(C)C)NC(C)=O)C(=O)N[C@H](Cc1c[nH]cn1)C(=O)N[C@H](Cc1c[nH]cn1)C(=O)N[C@H](Cc1c[nH]c2ccccc12)C(N)=O` [Ac-(D)Leu-(D)Trp-(D)Ile-(D)His-(D)His-(D)Trp-NH2] (Ac-[dL][dW][dI][dH][dH][dW]-NH2): the IC50 turned out to be 24 µM and the inhibition at 50 µM stood at 103%. The matching figures for `CC[C@@H](C)[C@@H](NC(=O)[C@@H](Cc1c[nH]c2ccccc12)NC(=O)[C@@H](CC(C)C)NC(C)=O)C(=O)N[C@H](Cc1c[nH]cn1)C(=O)N[C@H](CC(C)C)C(=O)N[C@H](CCCNC(=N)N)C(N)=O` [Ac-(D)Leu-(D)Trp-(D)Ile-(D)His-(D)Leu-(D)-Arg-NH2] (Ac-[dL][dW][dI][dH][dL][dR]-NH2): 12 µM and 103%. Turning to `CC[C@@H](C)[C@@H](NC(=O)[C@@H](Cc1c[nH]c2ccccc12)NC(=O)[C@@H](CC(C)C)NC(C)=O)C(=O)N[C@H](Cc1c[nH]cn1)C(=O)N[C@H](CC(C)C)C(=O)N[C@H](Cc1c[nH]c2ccccc12)C(N)=O` [Ac-(D)Leu-(D)Trp-(D)Ile-(D)His-(D)Leu-(D)Trp-NH2] (Ac-[dL][dW][dI][dH][dL][dW]-NH2), the inhibition at 50 µM was found to be 103%. Take `CC[C@@H](C)[C@@H](NC(=O)[C@@H](Cc1c[nH]c2ccccc12)NC(=O)[C@@H](CC(C)C)NC(C)=O)C(=O)N[C@@H](C(=O)N[C@H](Cc1c[nH]cn1)C(=O)N[C@H](CCCNC(=N)N)C(N)=O)[C@H](C)CC` [Ac-(D)Leu-(D)Trp-(D)Ile-(D)Ile-(D)His-(D)Arg-NH2] (Ac-[dL][dW][dI][dI][dH][dR]-NH2): the IC50 came out at 43 µM and the inhibition at 50 µM is 89.5%. The matching figures for `CC[C@@H](C)[C@@H](NC(=O)[C@@H](Cc1c[nH]c2ccccc12)NC(=O)[C@@H](CC(C)C)NC(C)=O)C(=O)N[C@@H](C(=O)N[C@H](Cc1c[nH]cn1)C(=O)N[C@H](Cc1c[nH]c2ccccc12)C(N)=O)[C@H](C)CC` [Ac-(D)Leu-(D)Trp-(D)Ile-(D)Ile-(D)His-(D)Trp-NH2] (Ac-[dL][dW][dI][dI][dH][dW]-NH2): no more than 9 µM and 92.1%. On to `CC[C@@H](C)[C@@H](NC(=O)[C@@H](Cc1c[nH]c2ccccc12)NC(=O)[C@@H](CC(C)C)NC(C)=O)C(=O)N[C@@H](C(=O)N[C@H](CC(C)C)C(=O)N[C@H](CCCNC(=N)N)C(N)=O)[C@H](C)CC` [Ac-(D)Leu-(D)Trp-(D)Ile-(D)Ile-(D)Leu-(D)Arg-NH2] (Ac-[dL][dW][dI][dI][dL][dR]-NH2), for which the IC50 worked out at 10 µM and the inhibition at 50 µM stood at 85.5%. As to `CC[C@@H](C)[C@@H](NC(=O)[C@@H](Cc1c[nH]c2ccccc12)NC(=O)[C@@H](CC(C)C)NC(C)=O)C(=O)N[C@@H](C(=O)N[C@H](CC(C)C)C(=O)N[C@H](Cc1c[nH]c2ccccc12)C(N)=O)[C@H](C)CC` [Ac-(D)Leu-(D)Trp-(D)Ile-(D)Ile-(D)Leu-(D)Trp-NH2] (Ac-[dL][dW][dI][dI][dL][dW]-NH2), the IC50 is greater than 50 µM and the inhibition at 50 µM came to 23.7%. For the compound `CSCC[C@@H](NC(=O)[C@@H](Cc1c[nH]cn1)NC(=O)[C@@H](Cc1ccccc1)NC(=O)[C@@H](Cc1ccccc1)NC(C)=O)C(=O)N[C@H](CCSC)C(=O)N1CCC[C@@H]1C(N)=O` [Ctr 1, Ac-(D)Phe-(D)Phe-(D)His-(D)-Met-(D)Met-(D)Pro-NH2, reference compound] (Ac-[dF][dF][dH][dM][dM][dP]-NH2), the inhibition at 50 µM was 36.8%. On the same count and under the same terms, the same measure for `CSCC[C@@H](NC(=O)[C@@H](CCSC)NC(=O)[C@@H](Cc1ccccc1)NC(=O)[C@@H](Cc1c[nH]cn1)NC(=O)[C@@H](CC(=O)O)NC(C)=O)C(=O)N[C@H](C)C(N)=O` [Ctr 2, Ac-(D)Asp-(D)His-(D)Phe-(D)Met-(D)Met-(D)-Ala-NH2, reference compound] (Ac-[dD][dH][dF][dM][dM][dA]-NH2): 35.5%; for `CC[C@H](C)[C@H](NC(=O)[C@H](Cc1ccccc1)NC(C)=O)C(=O)N[C@H](C(=O)N[C@@H](Cc1c[nH]c2ccccc12)C(=O)N[C@@H](Cc1ccccc1)C(=O)N[C@@H](CCC(=O)O)C(N)=O)[C@@H](C)CC` [Ctr 3, Ac-Phe-Ile-Ile-Trp-Phe-Glu-NH2, reference compound] (Ac-FIIWFE-NH2): 107%. With `NCCCCNS(=O)(=O)c1ccc2c(Cl)cccc2c1` [Peptide W13, N-(4-aminobutyl)-5-chloro-2-naphtalenesulfonamide, reference compound], the half-inhibitory concentration (IC50) was less than 75 µM.
